Experimental data: patent US20110143948A1, “MOLECULAR SIGNATURES AND BIOMARKERS ASSOCIATED WITH MELANOMA AND METHODS OF USE THEREOF” (priority 2008, published 2011)

Test system: ncRNAs (SEQ ID NO 28-89)
Assay: ncRNA arrays of melanocytes, keratinocytes, normal skin, melanoma cell lines and patient samples
Parameters: species or system human
Details: for ncRNA array expression, patient 2: melanoma patient 2 sample compared to normal skin; for ncRNA array expression, patient 3: melanoma patient 3 sample compared to normal skin; for ncRNA array expression, patient 4: melanoma patient 4 sample compared to normal skin; for ncRNA array expression, patient 5: melanoma patient 5 sample compared to normal skin; for ncRNA array expression, patient 6: melanoma patient 6 sample compared to normal skin; for ncRNA array expression, patient 7: melanoma patient 7 sample compared to normal skin; for ncRNA array expression, patient 8: melanoma patient 8 sample compared to normal skin; for ncRNA array expression, patient 9: melanoma patient 9 sample compared to normal skin; for ncRNA array expression, patient 10: melanoma patient 10 sample compared to normal skin; for ncRNA array expression, patient 19: melanoma patient 19 sample compared to normal skin; for ncRNA array expression, patient 20: melanoma patient 20 sample compared to normal skin; for ncRNA array expression, patient 21: melanoma patient 21 sample compared to normal skin; for ncRNA array expression, patient 22: melanoma patient 22 sample compared to normal skin; for ncRNA array expression, patient 23: melanoma patient 23 sample compared to normal skin; for ncRNA array expression, patient 24: melanoma patient 24 sample compared to normal skin; for ncRNA array expression, patient 25: melanoma patient 25 sample compared to normal skin; for ncRNA array expression, patient 26: melanoma patient 26 sample compared to normal skin; for ncRNA array expression, patient 27: melanoma patient 27 sample compared to normal skin; for ncRNA array expression, patient 28: melanoma patient 28 sample compared to normal skin; for ncRNA array expression, patient 29: melanoma patient 29 sample compared to normal skin; for ncRNA array expression, patient 30: melanoma patient 30 sample compared to normal skin
Outline: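 Differential ncRNA expression was defined against melanocytes or normal skin after subtracting keratinocyte-specific signals, with confirmation by qRT-PCR and Northern blot. Samples were melanoma cell lines, patient tumours, melanocytes, keratinocytes and normal skin, hybridised to a >10,000-probe (>200 nt) ncRNA array that also carries RefSeq mRNA probes.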

| Substance | ncRNA array expression, patient 2 | ncRNA array expression, patient 3 | ncRNA array expression, patient 4 | ncRNA array expression, patient 5 | ncRNA array expression, patient 6 | ncRNA array expression, patient 7 | ncRNA array expression, patient 8 | ncRNA array expression, patient 9 | ncRNA array expression, patient 10 | ncRNA array expression, patient 19 | ncRNA array expression, patient 20 | ncRNA array expression, patient 21 | ncRNA array expression, patient 22 | ncRNA array expression, patient 23 | ncRNA array expression, patient 24 | ncRNA array expression, patient 25 | ncRNA array expression, patient 26 | ncRNA array expression, patient 27 | ncRNA array expression, patient 28 | ncRNA array expression, patient 29 | further results |
| --- | --- | --- | --- | --- | --- | --- | --- | --- | --- | --- | --- | --- | --- | --- | --- | --- | --- | --- | --- | --- | --- |
| SEQ ID NO 83 (TCAGTTTGATGATTGGGCTAGGGAATGAAGCTTTGCCACTTAGGAGATAAACCCCATAAC; listed as DNA, chemistry not given here; listed as Homo sapiens) | −1.488 | −1.164 | −1.691 | −1.156 | −0.6047 | −0.9496 | −0.9534 | −1.016 | −1.381 | −1.6448 | −1.228 | −1.45 | −1.116 | −1.855 | −1.066 | −1.422 | −1.405 | −1.43 | −1.28 | −1.1118 | ncRNA array expression, patient 30: −1.73 |
| SEQ ID NO 32 (ATTCAAATCTTCATGAATGGCATCACTTGCTTTAGACCCATTTTTTTTTTATTGGTCAGA; DNA, backbone and methylation of C not given here; listed as Homo sapiens) | 1.211 | 0.4737 | 2.717 | 1.51 | 0.7439 | 1.568 | 2.606 | 1.062 | 0.7286 | 2.126 | 3.196 | 0.7443 | 0.9022 | 0.8613 | 1.339 | 4.072 | 3.121 | 3.501 | 0.9963 | 1.473 | ncRNA array expression, patient 30: −2.05 |
| SEQ ID NO 89 (GGACACAGAGAGTCATGCACCAGCCCAGTGAGAACCAATTCAGAGCCAAATGCCAAACCC; listed as DNA, chemistry not given here; listed as Homo sapiens) | −1.09 | −1.2821 | −1.434 | −1.049 | −0.6535 | −0.5162 | −1.137 | −1.442 | −1.643 | −0.5304 | −0.7949 | −1.104 | −0.9143 | −0.3405 | −0.9409 | −1.675 | −1.6 | −0.9956 | −0.9677 | −1.266 | ncRNA array expression, patient 30: 0.7591 |
| SEQ ID NO 33 (TATTGAATGTACACAAGTAATGATGGAGTTTGATTATATGGTTCATTTTCATTTATCCTA; DNA, backbone and methylation of C not given here; listed as Homo sapiens) | 0.6575 | 0.8123 | 3.512 | 0.6998 | 1.768 | 2.379 | 2.278 | 0.3136 | 1.984 | 1.068 | 1.404 | 1.613 | 0.8185 | −0.4072 | 3.016 | 1.628 | 2.999 | 3.593 | 2.24 | 2.111 | ncRNA array expression, patient 30: −0.2823 |
| SEQ ID NO 36 (TATTTGTGACTAACTGTATAACAGGTTATTTTAGTTTCTGTTCTGTGGGAAGTGTAAAGC; listed as DNA, chemistry not given here; listed as Homo sapiens) | 3.977 | 3.577 | 4.181 | 4.05 | 3.52 | 4.601 | 4.36 | 3.565 | 2.818 | 3.798 | 4.669 | 3.909 | 3.164 | 2.96 | 3.815 | 5.084 | 4.401 | 4.909 | 4.878 | 4.381 | ncRNA array expression, patient 30: −1.698 |
